Measured values reported in patent US20020090341A1, “Method” (NYCOMED IMAGING AS, priority 1997, published 2002).
Read-outs that look alike come from different tables or passages of the source.

Legend:
[1] = system: ex vivo guinea pig hearts; settings: for T1 relaxation time: LV tissue, 0.234 T
Description: Guinea pigs (450-500 g) were anaesthetised with sodium pentobarbital (intraperiotenal injection 100 mg). Hearts were rapidly excised and connected to the aortic cannula of a standard Langendorff perfusion system with conditions preset at 37° C. Perfusion with glucose-containing Krebs Henseleit's bicarbonate buffer (Krebs buffer) was maintained in the constant flow mode during the entire experiment by use of a finely adjustable pump. Under normal perfusion conditions coronary flow rate (CFR) was […] and during global, low flow ischemia 0.25 ml/min (92% reduction of normal CFR). Left ventricular (LV) developed pressure (LVDP) was measured by use of a LV fluid-filled balloon connected to a pressure transducer and recording device. At the end of the experiments excised samples from the LV were freeze-clamped, freeze-dried and prepared for analysis of LV contents of Mn metal by atomic absorbtion spectrophotometry and of ATP by high pressure liquid chromatography. Fresh, non-clamped LV samples were taken for immediate (within 30 min) measurements of tissue longitudinal (T1) relaxation time by use of a Bruker Minispec PC 110 spectrometer operating at 0.234 T and at a proton frequency of 10 MHz.
In normal perfusion experiments (series A) hearts were subjected to a 20 min control period before being perfused for 5 min with ascending concentrations (0-3000 μM) of MnDPDP present in the Krebs buffer. This was followed by 5 min perfusion with buffer only to ensure an effective washout of residual extracellular MnDPDP. In global ischemia experiments hearts were perfused at low flow (92% CFR reduction) with normal Krebs buffer. After different durations (0, 15, 30, 90, and 120 min) of ischemia MnDPDP (1000 μM, 3000 μM) was included in the buffer for a final 5 min period of low flow ischemia. The experiments were ended by 5 min perfusion at normal flow with anoxic and calcium-free Krebs buffer to ensure washout of residual extracellular MnDPDP without reactivating normal cardiac function. In the results (series B) the ischemia durations are presented as 0-5 min, 15-20 min, 30-35 min, 90-95 min, and 120-125 min.

[2] = system: regionally ischemic heart; settings: for Myocardial enhancement: normal myocardium
Description: Sprague-Dawley rats (250-300 g) were anaesthetised with 50 mg/kg sodium pentobarbital and mechanically ventilated after tracheostomy. For bolus injection of the contrast agent, a catheter was placed in the femoral vein. In order to produce regional ischemia, left thoracotomy was performed followed by occlusion of the anterior branch of the left coronary artery. The potential of various doses of MnDPDP in demarcating regional ischemia was determined. Four groups of animals were designed, each group (n=7-8 rats) received one bolus dose (1 ml/kg) of MnDPDP (0.005, 0.010, 0.020, or 0.040 mmol/kg). MR imaging was performed between 15-20 mins after acute coronary occlusion.
ECG-gated inversion recovery echoplanar images were acquired using a GE Omega 2.0 T system and a home-built 5.6 cm birdcage imaging coil. A blipped EPI of 64×64 points to define a […] (FOV) of 40×40 mm was used. TE was set to 10 msec by acquiring an asymmetric echo. Inversion recovery was accomplished using a composite non-selective inversion pulse which was carefully optimized prior to administration of the contrast medium. Shortly after the occlusion of the coronary vessel (15-25 mins), IR EP imaging was used to monitor bolus passage of MnDPDP through the regionally ischemic heart. Fully relaxed T1-sensitive inversion recovery EP images (TR=5 s) were acquired in a set of 16 images. Then, 32 inversion-recovery echoplanar images every 2 secs were obtained with inversion time of 700 msecs (to nullify myocardial signal) to monitor the dynamic T1 changes in myocardial signal intensity during the passage of the contrast medium. Changes in myocardial signal as a function of time were plotted. ROIs were obtained from non-ischemic and ischemic myocardium as well as from LV chamber blood. ROIs were determined on images acquired post-contrast injection, where the ischemic region is clearly defined. Alterations in signal intensity were referred to that of fully relaxed intensity (=100%).
At the conclusion of the imaging protocol, the presence of coronary occlusion and acute ischemia was confirmed at postmortem by injecting 0.5 ml/kg phthalocyanine blue dye intravenously. Blue dye was then allowed to circulate for 3 mins before the heart was excised.

[3] = MnDPDP 300 μM, versus control hearts
[4] = MnDPDP 1000 μM, versus control hearts
[5] = MnDPDP 3000 μM, versus control hearts

**Q.** With Cc1ncc(COP(=O)(O)O)c(CN(CCN(CC(=O)[O-])Cc2c(COP(=O)(O)O)cnc(C)c2O)CC(=O)[O-])c1O.[Mn+2] [MnDPDP, manganese (II) chelate of N,N′-bis-(pyridoxal-5-phosphate)-ethylenediamine-N,N′-diacetic acid] as the compound, how does the “Tissue Mn content” value ([1]; MnDPDP 30 μM 5 min, then 5 min washout, n = 6, mean (SD)) read?
**A.** Its value is 11.0(1.5) μmole/100 g dry wt.

**Q.** And the T1 relaxation time ([1]; MnDPDP 30 μM, n = 6, mean (SD))?
**A.** The T1 relaxation time was 871(93) msec.

**Q.** What about the “Tissue Mn content” value ([1]; MnDPDP 100 μM 5 min, then 5 min washout, n = 6, mean (SD)) of the same compound?
**A.** The value was 12.2(2.4) μmole/100 g dry wt.

**Q.** And the T1 relaxation time ([1]; MnDPDP 100 μM, n = 6, mean (SD))?
**A.** The T1 relaxation time was 808(81) msec.

**Q.** What about the “depression of LVDP” value ([1]; MnDPDP 300 μM) of the same compound?
**A.** Its value is 10%.

**Q.** And the “Tissue Mn content” value ([1]; MnDPDP 300 μM 5 min, then 5 min washout, n = 6, mean (SD))?
**A.** Its value is 23.2(4.1) μmole/100 g dry wt.

**Q.** What about the “fold increase in Mn content” value [1, 3] of the same compound?
**A.** The value was 5-6 fold.

**Q.** What about the “reduction in T1” value [1, 3] of the same compound?
**A.** The value was 40%.

**Q.** What about the T1 relaxation time ([1]; MnDPDP 300 μM, n = 6, mean (SD)) of the same compound?
**A.** Its T1 relaxation time is 619(18) msec.

**Q.** And the “Tissue Mn content” value ([1]; MnDPDP 1000 μM 5 min, then 5 min washout, n = 6, mean (SD))?
**A.** Its value is 45.4(10.8) μmole/100 g dry wt.

**Q.** What about the “factor by which tissue Mn content was raised above the control level in non-treated hearts” value ([1]; MnDPDP 1000 μM at onset (0-5 min) of ischemia) of the same compound?
**A.** The value was 2-3.

**Q.** What about the “Tissue Mn content” value ([1]; MnDPDP 1000 μM during last 5 min, ischemia 0-5 min, n = 4, mean (SD)) of the same compound?
**A.** The value was 10.5(3.6) μmole/100 g dry wt.

**Q.** What about the “Tissue Mn content” value ([1]; MnDPDP 1000 μM during last 5 min, ischemia 15-20 min, n = 4, mean (SD)) of the same compound?
**A.** Its value is 9.9(2.3) μmole/100 g dry wt.

**Q.** And the “Tissue Mn content” value ([1]; MnDPDP 1000 μM during last 5 min, ischemia 30-35 min, n = 4, mean (SD))?
**A.** Its value is 4.3(1.6) μmole/100 g dry wt.

**Q.** What about the “Tissue Mn content” value ([1]; MnDPDP 1000 μM during last 5 min, ischemia 90-95 min, n = 4, mean (SD)) of the same compound?
**A.** The value was 5.7(2.4) μmole/100 g dry wt.

**Q.** What about the “Tissue Mn content” value ([1]; MnDPDP 1000 μM during last 5 min, ischemia 120-125 min, n = 4, mean (SD)) of the same compound?
**A.** Its value is 5.6(2.3) μmole/100 g dry wt.

**Q.** What about the “fold rise in Mn content” value [1, 4] of the same compound?
**A.** Its value is 11 fold.

**Q.** What about the “reduction in T1 values” [1, 4] of the same compound?
**A.** Its value is 55%.

**Q.** What about the T1 relaxation time ([1]; MnDPDP 1000 μM, n = 6, mean (SD)) of the same compound?
**A.** The T1 relaxation time was 461(85) msec.

**Q.** What about the “Tissue Mn content” value ([1]; MnDPDP 3000 μM 5 min, then 5 min washout, n = 6, mean (SD)) of the same compound?
**A.** The value was 70.4(14.9) μmole/100 g dry wt.

**Q.** And the “factor by which tissue Mn content was raised above the control level in non-treated hearts” value ([1]; MnDPDP 3000 μM at onset (0-5 min) of ischemia)?
**A.** The value was 4-5.

**Q.** And the “Tissue Mn content” value ([1]; MnDPDP 3000 μM during last 5 min, ischemia 0-5 min, n = 4, mean (SD))?
**A.** Its value is 16.5(2.4) μmole/100 g dry wt.

**Q.** What about the “Tissue Mn content” value ([1]; MnDPDP 3000 μM during last 5 min, ischemia 15-20 min, n = 4, mean (SD)) of the same compound?
**A.** Its value is 12.9(4.0) μmole/100 g dry wt.

**Q.** What about the “Tissue Mn content” value ([1]; MnDPDP 3000 μM during last 5 min, ischemia 30-35 min, n = 4, mean (SD)) of the same compound?
**A.** The value was 6.0(2.2) μmole/100 g dry wt.

**Q.** And the “Tissue Mn content” value ([1]; MnDPDP 3000 μM during last 5 min, ischemia 90-95 min, n = 4, mean (SD))?
**A.** Its value is 7.2(2.8) μmole/100 g dry wt.

**Q.** And the “fold rise in Mn content” value [1, 5]?
**A.** Its value is 17 fold.

**Q.** What about the “reduction in T1 values” [1, 5] of the same compound?
**A.** The value was 70%.

**Q.** What about the T1 relaxation time ([1]; MnDPDP 3000 μM, n = 6, mean (SD)) of the same compound?
**A.** Its T1 relaxation time is 341(46) msec.

**Q.** And the “tissue Mn contents, normal perfusion conditions relative to early ischemic conditions (0-5 min)” value ([1]; Table 1 versus Table 3)?
**A.** The value was “approximately 4 times”.

**Q.** And the LVDP after washout ([1]; following 5 min of MnDPDP washout)?
**A.** Its LVDP after washout is “returns rapidly to control values”.

**Q.** What about the LVDP during perfusion ([1]; higher concentrations of MnDPDP) of the same compound?
**A.** Its LVDP during perfusion is “falls rapidly”.

**Q.** And the “tissue Mn content compared with normally perfused non-treated hearts” value ([1]; ischemic durations of 30-35 min, 90-95 min, and 120-125 min)?
**A.** Its value is “not significantly different”.

**Q.** What about the “delineation of the ischemic region” value ([2]; 0.005 mmol/kg) of the same compound?
**A.** The value was “insufficient to provide clear delineation of the ischemic region”.

**Q.** What about the “delineation of the ischemic region” value ([2]; 0.010, 0.020, and 0.040 mmol/kg) of the same compound?
**A.** Its value is “the ischemic region was identified as a region of very low signal”.

**Q.** What about the Myocardial enhancement ([2]; 5 micromole/kg bolus) of the same compound?
**A.** The Myocardial enhancement was 23±2 % of fully relaxed images.

**Q.** And the Myocardial enhancement ([2]; 10 micromole/kg bolus)?
**A.** The Myocardial enhancement was 28±2 % of fully relaxed images.

**Q.** What about the Myocardial enhancement ([2]; 20 micromole/kg bolus) of the same compound?
**A.** Its Myocardial enhancement is 34±5 % of fully relaxed images.

**Q.** And the Myocardial enhancement ([2]; 40 micromole/kg bolus)?
**A.** The Myocardial enhancement was 48±4 % of fully relaxed images.
